# From patent US20220125765A1, “PHARMACEUTICAL COMBINATIONS COMPRISING MEBENDAZOLE AND A STRONG OR MODERATE CYP1A2 INHIBITOR” (ZEPHAPHARM LTD, priority 2019, published 2022)
# Tests used:
# [1] = target: T1, human OATP1B3 transporter (Homo sapiens, UniProt Q9NPD5); test: Uptake into OATP1B3 and empty vector transfected HEK293 cells; format: in vitro ADME; settings: for Uptake rate Mean: 2 min; for Uptake ratio: OATP1B3 vs control
# T1 construct: expressed in transfected cells; host or cells: HEK293 (transient transfection)
# T1 sequence (Q9NPD5 1-702): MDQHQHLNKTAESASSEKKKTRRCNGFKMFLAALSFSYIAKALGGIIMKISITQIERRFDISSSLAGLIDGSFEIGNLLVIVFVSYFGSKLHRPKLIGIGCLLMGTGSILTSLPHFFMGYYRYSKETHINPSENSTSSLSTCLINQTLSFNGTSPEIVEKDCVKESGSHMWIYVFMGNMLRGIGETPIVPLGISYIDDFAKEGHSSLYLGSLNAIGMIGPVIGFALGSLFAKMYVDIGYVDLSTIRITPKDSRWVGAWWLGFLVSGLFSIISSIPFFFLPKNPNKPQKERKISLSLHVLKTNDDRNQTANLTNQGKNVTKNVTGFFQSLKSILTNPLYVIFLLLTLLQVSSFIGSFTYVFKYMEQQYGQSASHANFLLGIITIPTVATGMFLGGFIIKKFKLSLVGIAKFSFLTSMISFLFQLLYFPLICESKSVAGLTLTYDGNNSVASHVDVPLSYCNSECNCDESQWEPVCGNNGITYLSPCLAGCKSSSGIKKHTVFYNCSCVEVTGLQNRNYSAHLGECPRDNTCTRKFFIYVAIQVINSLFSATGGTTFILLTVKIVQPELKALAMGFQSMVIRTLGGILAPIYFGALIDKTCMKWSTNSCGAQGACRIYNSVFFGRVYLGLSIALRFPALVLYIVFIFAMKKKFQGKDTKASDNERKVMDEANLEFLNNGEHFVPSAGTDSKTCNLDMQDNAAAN
# Protocol: (§1) Test compound (at 1 and 10 μM) was incubated with both SLC transporter-expressing HEK293 cells and control (empty vector) HEK293 cells for 2 min.
# [2] = tested on: SXFS A-204; test: 2D monolayer CellTiter-Blue viability, soft tissue sarcoma A-204; format: cell-based; settings: 72 h
# Protocol: (§2) Seventeen compounds, including mebendazole (Batch no. […] Efficacy of compounds was assessed using CellTiter-Blue® Cell Viability Assay. Anti-tumor activity is expressed as absolute and relative IC50 and IC70 values, calculated by non-linear regression analysis.
# [3] = tested on: SXFO U-2-OS; test: 2D monolayer CellTiter-Blue viability, osteosarcoma U-2-OS; format: cell-based; settings: 72 h
# Protocol: as §2
# [4] = target: T2, human OATP1B1 transporter (Homo sapiens, UniProt Q9Y6L6); test: Uptake into OATP1B1 and empty vector transfected HEK293 cells; format: in vitro ADME; settings: for Uptake rate Mean: 2 min; for Uptake ratio: OATP1B1 vs control
# T2 construct: expressed in transfected cells; host or cells: HEK293 (transient transfection)
# T2 sequence (Q9Y6L6 1-691): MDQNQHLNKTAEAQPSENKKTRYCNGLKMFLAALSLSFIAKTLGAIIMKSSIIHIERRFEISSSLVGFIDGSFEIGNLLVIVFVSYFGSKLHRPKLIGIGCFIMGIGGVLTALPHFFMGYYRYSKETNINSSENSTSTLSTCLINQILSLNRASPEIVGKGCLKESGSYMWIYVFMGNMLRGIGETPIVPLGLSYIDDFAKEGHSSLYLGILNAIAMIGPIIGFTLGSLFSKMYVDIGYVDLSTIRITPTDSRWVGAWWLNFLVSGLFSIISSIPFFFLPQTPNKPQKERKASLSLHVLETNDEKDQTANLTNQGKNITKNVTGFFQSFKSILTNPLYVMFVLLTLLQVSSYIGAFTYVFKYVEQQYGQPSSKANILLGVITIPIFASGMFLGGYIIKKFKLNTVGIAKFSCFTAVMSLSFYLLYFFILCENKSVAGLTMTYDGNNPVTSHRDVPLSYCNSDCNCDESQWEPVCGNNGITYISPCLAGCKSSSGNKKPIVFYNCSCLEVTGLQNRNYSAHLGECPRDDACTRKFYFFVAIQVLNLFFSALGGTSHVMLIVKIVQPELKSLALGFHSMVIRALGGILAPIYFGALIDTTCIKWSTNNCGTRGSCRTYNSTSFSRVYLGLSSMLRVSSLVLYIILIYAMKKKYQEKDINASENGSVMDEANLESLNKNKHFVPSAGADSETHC
# Protocol: as §1
# [5] = tested on: SXFS RH-41; test: 2D monolayer CellTiter-Blue viability, soft tissue sarcoma RH-41; format: cell-based; settings: 72 h
# Protocol: as §2
# [6] = Stability in human liver microsomes without and with cimetidine or furafylline (Example 4); format: in vitro ADME; settings: human, liver microsomes, substrate 1 μM
# Protocol: A minus cofactor control incubation was included for each compound tested where 0.1 M phosphate buffer pH 7.4 was added instead of NADPH (minus NADPH). […] The samples were analysed for mebendazole or phenacetin using LC-MS/MS.
# A minus cofactor control incubation was included for each compound tested where 0.1 M phosphate buffer pH 7.4 was added instead of cofactor (minus NADPH). […] The samples were analysed for mebendazole or phenacetin using LC-MS/MS.
# [7] = 1 μM, control (empty vector) HEK293 cells
# [8] = 10 μM, control (empty vector) HEK293 cells
# [9] = pH 7.4, with cimetidine 30 μM, plus 30 μM cimetidine
# [10] = pH 7.4, with cimetidine 100 μM, plus 100 μM cimetidine
# [11] = pH 7.4, with cimetidine 300 μM, plus 300 μM cimetidine
structure (smiles),measurement,setting,value
"COC(=O)Nc1nc2ccc(C(=O)c3ccccc3)cc2[nH]1 [Mebendazole, methyl N-(6-benzoyl-1H-benzimidazol-2-yl)carbamate]",Uptake rate Mean,"[1]; 1 μM, OATP1B3 HEK293 cells",56.6 pmol/mg
same,Uptake ratio,[1]; 1 μM,1.1
same,Uptake rate Mean,[1]; [7],50.1 pmol/mg
same,Uptake rate Mean,"[1]; 10 μM, OATP1B3 HEK293 cells",466 pmol/mg
same,Uptake ratio,[1]; 10 μM,1.1
same,Uptake rate Mean,[1]; [8],414 pmol/mg
same,substrate of the human OATP1B3 transporter,[1]; 1 and 10 μM,not a substrate
same,Test/Control (%) at Drug Concentration,"[2]; A-204, 1.0E+00 μM",45%
same,Test/Control (%) at Drug Concentration,"[2]; A-204, 1.0E+01 μM",28%
same,Test/Control (%) at Drug Concentration,"[2]; A-204, 1.0E+02 μM",10%
same,Test/Control (%) at Drug Concentration,"[2]; A-204, 1.0E−01 μM",79%
same,Test/Control (%) at Drug Concentration,"[2]; A-204, 1.0E−02 μM",96%
same,Test/Control (%) at Drug Concentration,"[2]; A-204, 3.2E+00 μM",35%
same,Test/Control (%) at Drug Concentration,"[2]; A-204, 3.2E+01 μM",20%
same,Test/Control (%) at Drug Concentration,"[2]; A-204, 3.2E−01 μM",60%
same,Test/Control (%) at Drug Concentration,"[2]; A-204, 3.2E−02 μM",83%
same,Test/Control (%) at Drug Concentration,"[2]; A-204, 3.2E−03 μM",114%
same,Test/Control (%) at Drug Concentration,[3]; 1.0E+00 μM,38%
same,Test/Control (%) at Drug Concentration,[3]; 1.0E+01 μM,13%
same,Test/Control (%) at Drug Concentration,[3]; 1.0E+02 μM,6%
same,Test/Control (%) at Drug Concentration,[3]; 1.0E−01 μM,82%
same,Test/Control (%) at Drug Concentration,[3]; 1.0E−02 μM,89%
same,Test/Control (%) at Drug Concentration,[3]; 3.2E+00 μM,19%
same,Test/Control (%) at Drug Concentration,[3]; 3.2E+01 μM,11%
same,Test/Control (%) at Drug Concentration,[3]; 3.2E−01 μM,54%
same,Test/Control (%) at Drug Concentration,[3]; 3.2E−02 μM,86%
same,Test/Control (%) at Drug Concentration,[3]; 3.2E−03 μM,85%
same,Uptake rate Mean,"[4]; 1 μM, OATP1B1 HEK293 cells",42.5 pmol/mg
same,Uptake ratio,[4]; 1 μM,0.9
same,Uptake rate Mean,[4]; [7],49.0 pmol/mg
same,Uptake rate Mean,"[4]; 10 μM, OATP1B1 HEK293 cells",426 pmol/mg
same,Uptake ratio,[4]; 10 μM,0.9
same,Uptake rate Mean,[4]; [8],461 pmol/mg
same,substrate of the human OATP1B1 transporter,[4]; 1 and 10 μM,not a substrate
same,Test/Control (%) at Drug Concentration,"[5]; RH-41, 1.0E+00 μM",5%
same,Test/Control (%) at Drug Concentration,"[5]; RH-41, 1.0E+01 μM",6%
same,Test/Control (%) at Drug Concentration,"[5]; RH-41, 1.0E+02 μM",1%
same,Test/Control (%) at Drug Concentration,"[5]; RH-41, 1.0E−01 μM",81%
same,Test/Control (%) at Drug Concentration,"[5]; RH-41, 1.0E−02 μM",105%
same,Test/Control (%) at Drug Concentration,"[5]; RH-41, 3.2E+00 μM",5%
same,Test/Control (%) at Drug Concentration,"[5]; RH-41, 3.2E+01 μM",4%
same,Test/Control (%) at Drug Concentration,"[5]; RH-41, 3.2E−01 μM",17%
same,Test/Control (%) at Drug Concentration,"[5]; RH-41, 3.2E−02 μM",93%
same,Test/Control (%) at Drug Concentration,"[5]; RH-41, 3.2E−03 μM",95%
same,half-life at 1 μM,[6]; [9],1.28 h
same,microsomal CLint at 1 μM,[6]; [9],18 µL/min/mg
same,half-life at 1 μM,[6]; [10],1.3 h
same,microsomal CLint at 1 μM,[6]; [10],17.8 µL/min/mg
same,half-life at 1 μM,[6]; [11],1.54 h
same,microsomal CLint at 1 μM,[6]; [11],15 µL/min/mg
same,microsomal CLint at 1 μM,"[6]; pH 7.4, with furafylline 3 μM, plus 3 μM furafylline",2.84 µL/min/mg
same,microsomal CLint at 1 μM,"[6]; pH 7.4, with furafylline 10 μM, plus 10 μM furafylline",0.232 µL/min/mg
same,microsomal CLint at 1 μM,"[6]; pH 7.4, with furafylline 30 μM, plus 30 μM furafylline",0.336 µL/min/mg
same,half-life at 1 μM,"[6]; pH 7.4, no inhibitor",1.04 h
same,microsomal CLint at 1 μM,"[6]; pH 7.4, no inhibitor",22.2 µL/min/mg
